Data from patent US10292992B2, “Selective high-affinity polydentate ligands and methods of making such” (LAWRENCE LIVERMORE NATIONAL SECURITY, LLC, priority 2008, dated 2019).
Entries after “also recorded” stand apart in the source; their conditions may differ.

Assays:
Raji cells = assay: 3-D confocal microscopy, Raji cells; format: cell-based, human; conditions: biotinylated reagent, 1 hr, 10 μM SHAL or 10 nM chLym-1
Protocol: (§1) SHAL binding and internalization by Raji and Jurkat's cells was assessed using the method described previously by O'Donnell et al. (O'Donnell et al. (1998) Prostate 37:91-97). Experiments were conducted comparing the binding of (DvLPBaPPP)2LLDo (the parent SHAL), its hexa-arginine analog (DvLPBaPPP)2LArg6AcLLDo, and chimeric Lym-1 (chLym-1) to Raji cells. All steps were performed at 20° C., unless indicated.
(§2) Four million Raji cells (>92% viability) in log phase growth were pelleted at 300×g, washed, and blocked for 30 min in 1 ml of 1% fraction V BSA in PBS, with constant rotation. Cells were then incubated 1 hr, at 1 million per 250 μl, with either 1% BSA in PBS or a biotinylated primary reagent: 10 nM chLym-1, 10 μM parent SHAL, or 10 μM hexa-arginine SHAL. After four washes (two in 1% BSA in PBS, two in PBS), 50 μl of the cell suspensions was applied to freshly poly-L-Lysine coated slides, and cells were allowed to adhere for 10 min in a humid chamber. Fixation and permeabilization were performed at −20° C. by using a 4 min exposure to methanol. Jurkat's cells were treated in the same manner as a control.
Slides were then washed twice in PBS and blocked in 10% fetaplex serum (Gemini Bioproducts, West Sacramento, Calif.) in PBS for 15 min and washed once in PBS. The detection reagent, Streptavidin AlexaFluor 610 (Invitrogen, Carlsbad, Calif.) was diluted 1/500 in diluent, 100 μl was applied; a parafilm cover slip was layered over the solution to prevent evaporation. The slides were incubated in a humid chamber for 30 min., washed 5 times for 5 min each in PBS, and rinsed briefly in double distilled H2O. After the slides dried, cover slips were mounted with ProlongGold with 4′,6-diamidino-2-phenylindole (DAPI, Invitrogen, Carlsbad, Calif.). The slides were viewed with an Olympus FV1000 laser scanning confocal microscope and data were collected as Z-scans at 160×, with focal sections being taken 1 μm apart through the cell.

[1] = tested on: Jurkat's cells (cells lacking HLA-DR10); assay: 3-D confocal microscopy, Jurkat's cells; format: cell-based, human; conditions: biotinylated reagent, 1 hr
Protocol: as §1, §2
Slides were then washed twice in PBS and blocked in 10% fetaplex serum (Gemini Bioproducts, West Sacramento, Calif.) in PBS for 15 min and washed once in PBS. […]

HLA-DR10 protein = assay: Surface plasmon resonance binding of SHALs to isolated HLA-DR10 protein; parameters: species or system human
From the text: In certain embodiments, the binding affinities of the best SHALs can be estimated by mass spectrometry of the SHAL-target complexes, followed by a more accurate surface plasmon resonance (SPR) spectroscopy (Shuck (1997) Annu Rev Biophys Biomol Struct., 26: 541-566; Van Regenmortal (2001) Cell Mol Life Sci., 58: 794-800) measurement of the SHAL-target binding affinity using for example, the IASYS Plus or BiaCore instruments. In order to perform the SPR measurement, biotin can be added to the linker through a third functional group (as described above) and the SHAL can be bound to commercially available streptavidin coated chips. […] Experiments can be performed to test the selectivity of SHAL binding to targets in the presence of molecules related to the targets. Thus, for example, where the SHAL is directed to HLA-DR10, the SHAL can be evaluated for its ability to bind target molecules in the presence of Raji cell surface proteins extracted and separated by affinity chromatography. After treating the gel with the biotinylated SHAL and rinsing out excess unbound SHAL, the location of the bound SHAL can be detected by staining with Rhodamine tagged streptavidin.
Protein binding experiments were conducted using surface plasma resonance on a Biacore 3000 (Biacore, Piscataway, N.J.) at 25° C. A research grade streptavidin immobilized chip (SA chip, Biacore) was preconditioned and normalized according to the manufacturers instructions. Biotin labeled SHALs were dissolved in DMSO and diluted in 1.05×PBS (Biacore) to a final concentration of 1×PBS pH 7.4, 5% DMSO, to match the running buffer. These SHALs were injected over the flow cell to yield a surface density of 500-1000RU (response units). Biotin (50 μM E-Z Link Amine-PEO2-Biotin, Pierce) was injected over all cells for 1 minute at 20 μl/min as a block to reduce non-specific binding. One flow cell was used as a reference cell and a different SHAL was immobilized on each of the three other cells.
Experiments measuring the binding of HLA-DR10 to the SHALs were carried out at a flow rate of 30 μl/minute in PBS pH7.4 running buffer using all 4 flow cells. HLA-DR10 isolated from Raji cells (Rose et al. (1996) Cancer Immunol Immunother 43:26-30) was diluted in running buffer to a final concentration ranging from […] and a series of concentrations were run randomly in triplicate. Protein was injected for 3 minutes, allowed to dissociate for 5 minutes followed by regeneration of the surface using a 1 minute injection of 0.1% sodium dodecylsulfate (SDS) followed by a washing step with a 2 minute injection of running buffer. The data, which were double referenced by subtracting the blank reference surface and an average of 5 blank injections, were processed using the program SCRUBBER (University of Utah).
Using homology modeling, HLA-DR amino acid residues critical for Lym-1 binding were mapped on a 3-D model of the HLA-DR10ß subunit (Balhorn et al, (2007) Clin. Cancer Res., 13(Suppl. 18): S5621-S5628). Cavities within the Lym-1 epitopic surface of the protein were identified using SPHGEN (Kuntz et al. (1982) J. Mol Biol. 161: 269-288; Desjarlais et al. (1988) J. Med. Chem., 31: 722-729). After computational ligand docking for each of the cavities, a combination of NMR spectroscopy, surface plasmon resonance (BIAcore 3000; Biacore, Piscataway, N.J.) and competitive binding experiments were used to confirm ligand binding to HLA-DR10 protein. […]

[2] = General safety study in healthy mice; format: in vivo; conditions: 4 weeks; for adverse effects / toxicity: up to 2000 times the efficacy dose i.p.
Protocol: Each of 3 groups of 7 healthy Balb/c mice were given PBS, 20 or 200 μg of DOTA-chelated SHAL i.p., that is, 200 or 2,000 times the SHAL efficacy dose. Immediately prior to intervention, the mice were observed, weighed and blood counts (red, white and platelets) obtained, then the mice were observed daily, weighed 3 times each week and blood counts measured weekly for 4 weeks after intervention.

Row | Kd (HLA-DR10 protein; biotinylated versions of the SHALs immobilized on streptavidin chip, HLA-DR10 isolated from Raji cells) [nM] | Compound | SHAL binding, uptake and localization in Raji cells (Raji cells) | SHAL binding, uptake and localization in Raji cells (Raji cells; listed as hexa-arginine SHAL) | SHAL binding, uptake and localization in Raji cells (Raji cells; listed as hexa-arginine SHAL analog) | SHAL binding, uptake and localization in Raji cells (Raji cells; listed as hexa-arginine analog) | SHAL uptake in Jurkat's cells [1] | binding to isolated HLA-DR10 (in words) (HLA-DR10 protein) | SHAL binding to HLA-DR10 on Lym-1 addition (HLA-DR10 protein; isolated or recombinant HLA-DR10 protein) | body weight ([2]; 20 or 200 μg DOTA-chelated SHAL i.p. (200 or 2,000 times efficacy dose)) | blood counts ([2]; 20 or 200 μg DOTA-chelated SHAL i.p.) | adverse effects / toxicity [2] | adverse effects / toxicity ([2]; listed as SHAL)
1 | ~34 | CC(=O)NC(CCCNC(=N)N)C(=O)NC(CCCNC(=N)N)C(=O)NC(CCCNC(=N)N)C(=O)NC(CCCNC(=N)N)C(=O)NC(CCCNC(=N)N)C(=O)NC(CCCNC(=N)N)C(=O)NCCCCC(NC(=O)C(CCCCNC(=O)COCCOCCNC(=O)COCCOCCNC(=O)COCCOCCNC(=O)C(CCCCNC(=O)COCCOCCNC(=O)c1ccc(NC(=O)C(CCCNC(=N)N)NC(=O)c2ccccc2)cc1)NC(=O)C(NS(=O)(=O)c1ccc(N=Nc2ccc(N(C)C)cc2)cc1)C(C)C)NC(=O)COCCOCCNC(=O)COCCOCCNC(=O)COCCOCCNC(=O)C(CCCCNC(=O)COCCOCCNC(=O)c1ccc(NC(=O)C(CCCNC(=N)N)NC(=O)c2ccccc2)cc1)NC(=O)C(NS(=O)(=O)c1ccc(N=Nc2ccc(N(C)C)cc2)cc1)C(C)C)C(=O)NC(CCCCNC(=O)CN1CCN(CC(=O)O)CCN(CC(=O)O)CCN(CC(=O)O)CC1)C(=O)O (stereo not shown) [(DvLPBaPPP)2LArg6AcLLDo] | internalized | localized in the nucleus; also recorded: significantly more; also recorded: associated with the nucleus | associated with the nucleus | marked cytoplasmic binding but also intranuclear targeting; also recorded: taken up and internalized | minimal SHAL uptake | did not interfere with SHAL binding to the protein | – | – | – | – | –
2 | – | CC(C)C(NS(=O)(=O)c1ccc(N=Nc2ccc(N(C)C)cc2)cc1)C(=O)NCCOCCOCC(=O)NC(CCCCNC(=O)C(CCCCNC(=O)CC(=O)Nc1ccccc1Oc1ncc(C(F)(F)F)cc1Cl)NC(=O)COCCOCCNC(=O)c1ccc(N2CCN(Cc3ccc(Cl)cc3)CC2)c([N+](=O)[O-])c1)C(=O)NCCOCCOCC(=O)NC(CCCCNC(=O)CN1CCN(CC(=O)O)CCN(CC(=O)O)CCN(CC(=O)O)CC1)C(=O)O (stereo not shown) [tridentate SHAL] | – | – | – | – | – | better than nanomolar | blocked by Lym-1 addition | gained weight | stable blood counts | no evidence for toxicity; also recorded: did not exhibit signs of adverse events | no adverse effects
